US7972815B2, “Method of producing sugar chain using human G4 polypeptide” (Kyowa Hakko Kirin Co., Ltd., priority 1999, dated 2011)
Like-named read-outs stand apart in the source and are kept apart here.

How the values were obtained:
[1] = target: T1, β1,3-N-acetylglucosaminyl transferase (G4) (Homo sapiens, UniProt Q9Y2A9, R328H); assay: Substrate specificity of G4 with unlabeled oligosaccharides (HPAE/PAD); format: biochemical; conditions: for Relative activity (%): unlabeled substrate, 37° C., 16 hours, activity on LNnT defined as 100%
T1 construct: made in house; host or cells: Sf21 insect cells infected with recombinant baculovirus from pVL1393-F2G4
T1 sequence (Q9Y2A9 38-372 R328H): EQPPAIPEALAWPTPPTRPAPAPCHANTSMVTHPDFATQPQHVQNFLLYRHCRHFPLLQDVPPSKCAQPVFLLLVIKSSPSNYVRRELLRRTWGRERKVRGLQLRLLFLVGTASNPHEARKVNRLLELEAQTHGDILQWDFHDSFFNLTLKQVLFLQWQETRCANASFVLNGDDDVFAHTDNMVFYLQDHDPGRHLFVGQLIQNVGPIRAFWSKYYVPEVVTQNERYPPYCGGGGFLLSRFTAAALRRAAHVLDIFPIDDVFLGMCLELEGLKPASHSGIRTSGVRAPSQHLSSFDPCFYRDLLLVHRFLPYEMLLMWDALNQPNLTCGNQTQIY
Description: (§1) The reaction using the glycosyltransferase was carried out as follows. The reaction was carried out at 37° C. for 16 hours in 40 μl of an assay solution [50 mmol/l MOPS (pH 7.5), 5 mmol/l UDP-GlcNAc (SIGMA), 5 mmol/l MnCl2, […] and 10 μl of the above eluate]. Next, the reaction solution was treated at 100° C. for 5 minutes and then centrifuged at 10,000×g for 20 minutes to obtain the supernatant, and a portion thereof was analyzed using HPAE/PAD (High Performance Anion Pulsed Amperometoric Detection; manufactured by DIONEX). The specific method was carried out in the usual way [Anal. Biochem., 189, 151 (1990), J. Biol. Chem., 273, 433 (1998)].
(§2) As substrates, the following unlabeled oligosaccharides were used: lactose (Galβ1-4Glc), N-acetyllactosamine (Galβ1-4GlcNAc, hereinafter referred to as “LacNAc” in some cases), LNnT, LNT and lacto-N-neohexaose (Galβ1-4GlcNACβ1-3Galβ1-4GlcNAcβ1-3Galβ1-4Glc, hereinafter referred to as “LNnH”).
(§3) For each substrate, the reaction was carried using the assay solution with or without UDP-GlcNAc (sugar donor), and then HPLC was carried out and peaks appeared only in the assay solution containing UDP-GlcNAc were defined as products.
(§4) In identifying the product, coincidence of its elution time with that of a standard sugar chain was used as the index. As the standard sugar chains, GlcNAcβ1-3Galβ1-4Glc, GlcNAcβ1-3Galβ1-4GlcNAc and GlcNAcβ1-3Galβ1-4GlcNAcβ1-3Galβ1-4Glc were used.

[2] = target: T2, β1,3-N-acetylglucosaminyl transferase (G7) (Homo sapiens, UniProt Q9C0J1); assay: Substrate specificity of G7 with pyridylaminated oligosaccharides; format: biochemical; conditions: 16 hours; for Relative activity (%): pyridylaminated substrate, 37° C., activity for LNnT defined as 100%
T2 construct: made in house; host or cells: Sf21 insect cells infected with recombinant baculovirus from pVL1393-F2G7
Description: The method shown in Example 8 was used as the activity measuring method. Specifically, after the reaction at 37° C. for 14.5 hours in 30 μl of an assay solution [200 mmol/l of MOPS (pH 7.5), 20 mmol/l of UDP-GlcNAc (SIGMA), 20 mmol/l of MnCl2, 50 μmol/l of pyridylaminated sugar chain substrate and 15 μl of the above eluate], products were detected by HPLC. As substrates, LNnT, lacto-N-tetraose (Galβ1-3GlcNAcβ1-3Galβ1-4Glc, hereinafter referred to as “LNT”), lacto-N-fucopentaose II (Galβ1-3(Fucα1-4)GlcNAcβ1-3Galβ1-4Glc, hereinafter referred to as “LNFP-II”), lacto-N-fucopentaose III (Galβ1-4(Fucα1-3)GlcNAcβ1-3Galβ1-4Glc, hereinafter referred to as “LNFP-III”), lacto-N-fucopentaose V (Galβ1-3GlcNAcβ1-3Galβ1-4(Fucα1-3)Glc, hereinafter referred to as “LNFP-V”) and lacto-N-difucohexaose II (Galβ1-3(Fucα1-4)GlcNAcβ1-3Galβ1-4(Fucα1-3)Glc, hereinafter referred to as “LNDFH-II”) (all manufactured by Oxford Glycosystems) were used after fluorescently labeling them with aminopyridine. Fluorescence labeling of these substrates were carried out in accordance with the usual method [Agric. Biol. Chem., 54, 2169 (1990)].
as §3
The assay solution after completion of the reaction was treated at 100° C. for 5 minutes and then centrifuged at 10,000×g for 5 minutes, and a portion (5 μl) of the thus obtained supernatant was applied to HPLC.
The HPLC was carried out by using TSK-gel ODS-80Ts column (4.6×300 mm; Tosoh); 0.02 mol/l ammonium acetate buffer (pH 4.0) was used as the eluate at an elution temperature of 50° C. and at a flow rate of 0.5 ml/min.
Products were detected by using a fluorescence spectrum photometer FP-920 (JASCO Corporation) (excitation wavelength 320 nm, radiation wavelength 400 nm).
Examination of the substrate specificity of a β1,3-N-acetylglucosaminyl transferase (G7) was carried out using the FLAG peptide-fused G7 polypeptide purified in Example 17.
Substrate specificity of the FLAG peptide-fused G7 polypeptide was examined by the method shown in Example 11(1). The reaction was carried out at 37° C. for 16 hours.

[3] = target: T2, β1,3-N-acetylglucosaminyl transferase (G7); assay: Substrate specificity of G7 with unlabeled oligosaccharides; format: biochemical; conditions: 15.5 hours; for Relative activity (%) G7: unlabeled substrate, 37° C., activity for LNnT defined as 100%
Description: as §1, §2, §3, §4
Substrate specificity of the FLAG peptide-fused G7 polypeptide was examined using the method shown in Example 11(2). The enzyme reaction was carried out at 37° C. for 15.5 hours.

[4] = target: T3, β3GnT (Homo sapiens, UniProt Q9NY97); conditions: reported values, Proc. Natl. Acad. Sci. USA, 96, 406 (1999), cited from earlier work
T3 sequence (Q9NY97 1-397): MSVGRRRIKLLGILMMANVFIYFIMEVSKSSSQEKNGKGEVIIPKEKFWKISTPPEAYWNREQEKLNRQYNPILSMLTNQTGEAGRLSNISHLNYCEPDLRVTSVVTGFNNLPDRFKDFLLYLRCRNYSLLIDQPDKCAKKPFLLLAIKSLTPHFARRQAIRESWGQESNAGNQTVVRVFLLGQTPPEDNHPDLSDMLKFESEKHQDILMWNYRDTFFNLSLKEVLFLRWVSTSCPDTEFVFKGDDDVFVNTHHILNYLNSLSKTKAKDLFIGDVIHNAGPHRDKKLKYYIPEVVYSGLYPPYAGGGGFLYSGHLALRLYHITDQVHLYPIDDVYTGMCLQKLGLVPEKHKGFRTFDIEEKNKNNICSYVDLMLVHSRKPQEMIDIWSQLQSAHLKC

T2 sequence (Q9C0J1 56-378): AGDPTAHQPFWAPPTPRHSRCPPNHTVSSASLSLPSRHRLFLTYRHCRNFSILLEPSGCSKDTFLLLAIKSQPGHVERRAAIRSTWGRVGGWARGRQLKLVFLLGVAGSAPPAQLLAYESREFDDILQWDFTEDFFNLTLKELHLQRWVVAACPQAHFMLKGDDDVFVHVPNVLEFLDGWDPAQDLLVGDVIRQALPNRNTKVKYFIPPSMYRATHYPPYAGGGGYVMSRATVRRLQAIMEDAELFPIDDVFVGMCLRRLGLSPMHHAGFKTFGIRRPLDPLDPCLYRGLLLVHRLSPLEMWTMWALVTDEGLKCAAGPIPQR

Compound | conversion ratio of the substrate into the product ([1]; unlabeled LNnT as substrate) [%] | Relative activity (%) [1] [%] | conversion efficiency of the substrate into the product ([2]; pyridylaminated LNnT as substrate) [%] | Relative activity (%) [2] [%] | conversion efficiency of the substrate into the product ([3]; unlabeled LNnT as substrate) [%] | Relative activity (%) G7 [3] [%] | Relative activity (%) β3GnT ([4]; Table 4) [%] | Relative activity (%) β3GnT ([4]; Table 6) [%]
CC(=O)N[C@H]1[C@H](O[C@H]2[C@@H](O)[C@@H](CO)O[C@@H](O[C@H]3[C@H](O)[C@@H](O)C(O)O[C@@H]3CO)[C@@H]2O)O[C@H](CO)[C@@H](O[C@@H]2O[C@H](CO)[C@H](O)[C@H](O)[C@H]2O)[C@@H]1O (mixture of isomers) [LNnT, lacto-N-neotetraose] | 1.7 | 100 | 3.76 | 100 | 3.07 | 100 | 100 | 100
CC(=O)N[C@H]1[C@H](O[C@H]2[C@@H](O)[C@@H](CO)O[C@@H](O[C@H]3[C@H](O)[C@@H](O)C(O)O[C@@H]3CO)[C@@H]2O)O[C@H](CO)[C@@H](O)[C@@H]1O[C@@H]1O[C@H](CO)[C@H](O)[C@H](O)[C@H]1O (stereo partly shown) [LNT, lacto-N-tetraose] | – | 114 | – | 7.6 | – | 0 | 6 | 6
